# Source: the kinase profiling compilation of Christmann-Franck et al. (2016)
# Assays:
# Experiment in all cases: radiometric filter-binding kinase assay
# MAP3K9 (human) = MAP3K9 (human) (UniProt P80192)
# HIPK2 (human) = HIPK2 (human) (UniProt Q9H2X6)
# EPHA2 (human) = EPHA2 (human) (UniProt P29317)
# MARK1 (human) = MARK1 (human) (UniProt Q9P0L2)
# DYRK2 (human) = DYRK2 (human) (UniProt Q92630)
# RPS6KA5 KD1 KD2 (human) = RPS6KA5 KD1 KD2 (human) (UniProt O75582)
# CSNK2A1 (human) = CSNK2A1 (human) (UniProt P68400)
# NUAK1 (human) = NUAK1 (human) (UniProt O60285)
# IKBKE (human) = IKBKE (human) (UniProt Q14164)
# Chain of IKBKE (human) (Q14164 whole entry, looked up): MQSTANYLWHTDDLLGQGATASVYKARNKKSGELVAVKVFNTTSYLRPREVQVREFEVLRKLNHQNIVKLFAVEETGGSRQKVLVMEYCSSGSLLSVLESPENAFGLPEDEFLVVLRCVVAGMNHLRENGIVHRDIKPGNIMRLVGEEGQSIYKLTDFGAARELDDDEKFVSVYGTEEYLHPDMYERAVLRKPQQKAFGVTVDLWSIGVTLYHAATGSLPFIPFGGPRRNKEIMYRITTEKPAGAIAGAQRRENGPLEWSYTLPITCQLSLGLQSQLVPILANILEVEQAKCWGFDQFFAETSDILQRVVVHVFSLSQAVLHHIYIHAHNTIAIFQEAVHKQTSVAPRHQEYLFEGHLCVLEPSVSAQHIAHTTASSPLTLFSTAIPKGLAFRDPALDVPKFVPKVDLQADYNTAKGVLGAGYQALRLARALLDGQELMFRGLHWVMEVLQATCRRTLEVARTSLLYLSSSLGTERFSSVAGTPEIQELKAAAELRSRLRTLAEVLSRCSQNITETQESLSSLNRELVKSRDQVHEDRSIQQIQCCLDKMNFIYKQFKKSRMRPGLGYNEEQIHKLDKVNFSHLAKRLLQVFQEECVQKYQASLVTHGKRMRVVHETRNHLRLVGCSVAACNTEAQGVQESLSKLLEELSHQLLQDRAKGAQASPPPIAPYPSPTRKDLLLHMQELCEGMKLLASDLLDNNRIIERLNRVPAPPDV
# CaMK1 (human) = CaMK1 (human) (UniProt Q14012)
# Chain of CaMK1 (human) (Q14012 whole entry, looked up): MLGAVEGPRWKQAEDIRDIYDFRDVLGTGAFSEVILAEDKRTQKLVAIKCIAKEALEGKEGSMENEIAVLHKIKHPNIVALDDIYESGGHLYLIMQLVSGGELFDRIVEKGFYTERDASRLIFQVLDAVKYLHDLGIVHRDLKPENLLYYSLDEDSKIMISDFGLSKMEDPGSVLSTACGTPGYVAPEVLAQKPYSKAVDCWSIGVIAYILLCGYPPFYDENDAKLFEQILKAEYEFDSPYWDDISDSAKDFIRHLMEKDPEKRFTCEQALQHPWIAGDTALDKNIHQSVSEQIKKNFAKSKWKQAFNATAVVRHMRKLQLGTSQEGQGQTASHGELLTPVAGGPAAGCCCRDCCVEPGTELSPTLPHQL
# PAK6 (human) = PAK6 (human) (UniProt Q9NQU5)
# MAPK13 (human) = MAPK13 (human) (UniProt O15264)
# [1] = tested on: AKT1 (human), P31749 [S473D]
# MARK3 (human) = MARK3 (human) (UniProt P27448)
# LCK (mouse) = settings: accession and sequence are those of the human protein
# MAPK14 (human) = MAPK14 (human) (UniProt Q16539)
# EPHB1 (human) = EPHB1 (human) (UniProt P54762)
# TAOK1 (human) = TAOK1 (human) (UniProt Q7L7X3)
# EEF2K (human) = EEF2K (human) (UniProt O00418)
# PAK7 (human) = PAK7 (human) (UniProt Q9P286)
# ROCK2 (rat) = settings: accession and sequence are those of the human protein
# DYRK1A (human) = DYRK1A (human) (UniProt Q13627)
# ERBB4 (human) = ERBB4 (human) (UniProt Q15303)
# DAPK1 (human) = DAPK1 (human) (UniProt P53355)
# Chain of DAPK1 (human) (P53355 whole entry, looked up): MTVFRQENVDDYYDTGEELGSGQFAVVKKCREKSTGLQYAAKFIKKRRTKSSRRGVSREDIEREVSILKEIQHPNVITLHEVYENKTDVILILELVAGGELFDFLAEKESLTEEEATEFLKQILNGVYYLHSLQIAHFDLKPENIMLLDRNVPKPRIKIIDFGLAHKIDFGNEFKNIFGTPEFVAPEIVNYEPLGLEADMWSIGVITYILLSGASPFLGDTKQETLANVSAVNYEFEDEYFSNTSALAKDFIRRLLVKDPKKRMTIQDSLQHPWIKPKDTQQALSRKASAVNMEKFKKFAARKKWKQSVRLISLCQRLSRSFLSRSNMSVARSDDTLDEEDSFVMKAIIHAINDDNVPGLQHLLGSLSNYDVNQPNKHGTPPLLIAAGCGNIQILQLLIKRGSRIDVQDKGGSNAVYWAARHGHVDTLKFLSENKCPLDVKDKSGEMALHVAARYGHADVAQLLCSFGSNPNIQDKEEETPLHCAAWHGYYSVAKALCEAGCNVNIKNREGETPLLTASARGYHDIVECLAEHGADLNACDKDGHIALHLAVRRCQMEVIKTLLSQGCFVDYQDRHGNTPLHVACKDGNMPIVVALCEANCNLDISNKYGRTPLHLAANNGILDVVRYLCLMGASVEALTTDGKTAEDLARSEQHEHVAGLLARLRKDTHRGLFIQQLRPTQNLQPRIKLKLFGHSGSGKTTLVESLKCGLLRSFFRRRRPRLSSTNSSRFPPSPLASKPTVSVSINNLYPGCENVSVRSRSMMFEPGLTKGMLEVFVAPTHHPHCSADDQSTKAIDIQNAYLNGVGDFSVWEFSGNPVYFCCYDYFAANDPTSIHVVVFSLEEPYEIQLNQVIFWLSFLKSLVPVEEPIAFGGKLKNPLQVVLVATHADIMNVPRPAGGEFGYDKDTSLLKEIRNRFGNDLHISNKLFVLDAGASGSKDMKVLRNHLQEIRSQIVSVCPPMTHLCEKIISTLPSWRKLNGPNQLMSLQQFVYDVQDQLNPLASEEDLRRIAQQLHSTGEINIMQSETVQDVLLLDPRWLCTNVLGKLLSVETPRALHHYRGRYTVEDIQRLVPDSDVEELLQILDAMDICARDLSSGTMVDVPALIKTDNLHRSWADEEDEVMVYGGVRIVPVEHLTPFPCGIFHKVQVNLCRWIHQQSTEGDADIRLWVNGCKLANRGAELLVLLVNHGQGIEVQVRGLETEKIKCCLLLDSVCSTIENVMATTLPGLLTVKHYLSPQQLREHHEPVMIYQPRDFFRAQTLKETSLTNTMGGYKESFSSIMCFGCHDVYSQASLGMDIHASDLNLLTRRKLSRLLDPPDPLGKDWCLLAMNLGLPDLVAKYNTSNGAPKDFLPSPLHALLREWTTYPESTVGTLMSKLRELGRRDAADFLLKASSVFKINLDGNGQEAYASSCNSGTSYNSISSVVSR
# PAK4 (human) = PAK4 (human) (UniProt O96013)
# Chain of PAK4 (human) (O96013 whole entry, looked up): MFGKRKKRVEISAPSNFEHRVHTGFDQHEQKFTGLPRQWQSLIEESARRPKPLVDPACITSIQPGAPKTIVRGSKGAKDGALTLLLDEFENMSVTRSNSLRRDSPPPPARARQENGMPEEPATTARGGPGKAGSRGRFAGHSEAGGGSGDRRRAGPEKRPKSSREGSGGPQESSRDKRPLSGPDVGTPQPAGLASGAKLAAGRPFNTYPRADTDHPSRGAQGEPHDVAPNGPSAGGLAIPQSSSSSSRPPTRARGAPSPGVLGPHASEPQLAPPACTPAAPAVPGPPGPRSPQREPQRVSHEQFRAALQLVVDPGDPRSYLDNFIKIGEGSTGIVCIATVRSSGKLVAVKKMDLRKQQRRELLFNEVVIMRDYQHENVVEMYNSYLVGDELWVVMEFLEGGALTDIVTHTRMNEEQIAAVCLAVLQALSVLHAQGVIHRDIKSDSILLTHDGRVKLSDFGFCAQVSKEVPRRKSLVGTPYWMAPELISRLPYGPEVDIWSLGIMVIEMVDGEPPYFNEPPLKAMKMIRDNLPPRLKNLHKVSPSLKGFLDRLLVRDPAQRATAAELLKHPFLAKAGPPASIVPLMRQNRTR
# MST4 (human) = MST4 (human) (UniProt Q9P289)
# Chain of MST4 (human) (Q9P289 whole entry, looked up): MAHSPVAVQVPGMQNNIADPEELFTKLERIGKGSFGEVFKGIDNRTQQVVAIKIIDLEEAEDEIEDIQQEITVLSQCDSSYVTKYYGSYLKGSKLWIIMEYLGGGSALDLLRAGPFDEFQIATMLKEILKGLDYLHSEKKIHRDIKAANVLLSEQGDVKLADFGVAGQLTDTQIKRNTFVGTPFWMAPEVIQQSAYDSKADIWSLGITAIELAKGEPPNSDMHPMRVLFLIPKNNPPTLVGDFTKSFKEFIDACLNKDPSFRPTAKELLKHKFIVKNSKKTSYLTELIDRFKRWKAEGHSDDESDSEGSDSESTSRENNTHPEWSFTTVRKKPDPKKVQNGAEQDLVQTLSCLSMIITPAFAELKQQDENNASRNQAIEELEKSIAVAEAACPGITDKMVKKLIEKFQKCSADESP
# MAPKAPK5 (human) = MAPKAPK5 (human) (UniProt Q8IW41)
# EPHB3 (human) = EPHB3 (human) (UniProt P54753)
# BTK (human) = BTK (human) (UniProt Q06187)
# MAP2K6 (human) = MAP2K6 (human) (UniProt P52564)
# NEK6 (human) = NEK6 (human) (UniProt Q9HC98)
# Chain of NEK6 (human) (Q9HC98 whole entry, looked up): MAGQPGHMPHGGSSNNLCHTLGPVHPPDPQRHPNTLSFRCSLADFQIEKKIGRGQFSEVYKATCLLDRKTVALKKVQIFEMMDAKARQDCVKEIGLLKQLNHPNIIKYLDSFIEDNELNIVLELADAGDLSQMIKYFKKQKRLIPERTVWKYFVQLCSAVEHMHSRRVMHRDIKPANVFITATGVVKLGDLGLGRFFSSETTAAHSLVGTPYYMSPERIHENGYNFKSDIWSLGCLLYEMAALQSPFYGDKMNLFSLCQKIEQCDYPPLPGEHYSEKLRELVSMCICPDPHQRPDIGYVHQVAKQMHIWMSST
# PRKCZ (human) = PRKCZ (human) (UniProt Q05513)
# MAPK11 (human) = MAPK11 (human) (UniProt Q15759)
# HIPK1 (human) = HIPK1 (human) (UniProt Q86Z02)
# DYRK3 (human) = DYRK3 (human) (UniProt O43781)
# HIPK3 (human) = HIPK3 (human) (UniProt Q9H422)
# Chain of HIPK2 (human) (Q9H2X6 whole entry, looked up): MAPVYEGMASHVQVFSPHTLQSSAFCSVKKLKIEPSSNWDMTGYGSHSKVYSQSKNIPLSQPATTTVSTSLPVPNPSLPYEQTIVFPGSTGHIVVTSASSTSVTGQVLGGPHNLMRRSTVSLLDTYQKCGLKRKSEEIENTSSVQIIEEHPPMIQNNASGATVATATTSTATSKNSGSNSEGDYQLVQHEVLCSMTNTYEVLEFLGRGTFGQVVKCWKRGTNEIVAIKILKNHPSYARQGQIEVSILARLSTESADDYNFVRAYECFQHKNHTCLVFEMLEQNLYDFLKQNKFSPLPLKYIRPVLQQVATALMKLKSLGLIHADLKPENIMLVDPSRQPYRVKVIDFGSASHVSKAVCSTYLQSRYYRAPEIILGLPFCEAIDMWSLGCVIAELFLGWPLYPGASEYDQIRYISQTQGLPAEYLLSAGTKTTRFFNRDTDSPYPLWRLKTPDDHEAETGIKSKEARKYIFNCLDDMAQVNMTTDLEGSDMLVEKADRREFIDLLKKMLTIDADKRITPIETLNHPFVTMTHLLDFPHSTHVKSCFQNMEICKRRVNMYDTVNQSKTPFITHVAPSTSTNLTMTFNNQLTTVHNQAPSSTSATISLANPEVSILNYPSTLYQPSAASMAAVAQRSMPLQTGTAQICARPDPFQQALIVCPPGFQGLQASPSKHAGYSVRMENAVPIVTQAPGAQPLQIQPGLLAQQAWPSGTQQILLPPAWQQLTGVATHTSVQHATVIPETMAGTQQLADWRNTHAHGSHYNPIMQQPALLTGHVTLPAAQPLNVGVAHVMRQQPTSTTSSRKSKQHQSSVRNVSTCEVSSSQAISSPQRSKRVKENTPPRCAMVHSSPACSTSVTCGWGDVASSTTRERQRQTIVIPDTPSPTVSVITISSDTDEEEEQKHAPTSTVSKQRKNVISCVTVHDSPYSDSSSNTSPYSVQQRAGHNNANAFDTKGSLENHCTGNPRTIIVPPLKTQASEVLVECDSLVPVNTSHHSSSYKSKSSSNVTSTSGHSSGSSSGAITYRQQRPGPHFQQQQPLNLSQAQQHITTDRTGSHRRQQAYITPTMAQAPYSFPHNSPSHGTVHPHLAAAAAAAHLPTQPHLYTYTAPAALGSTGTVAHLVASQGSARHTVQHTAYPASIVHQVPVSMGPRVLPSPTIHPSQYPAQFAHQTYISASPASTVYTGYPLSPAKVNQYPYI
smiles,measurement,setting,value
Cc1ccc(Sc2cnc(Nc3cccc(Br)n3)s2)cc1C(=O)N1CCN(C(=O)CN)CC1,residual activity,MAP3K9 (human); compound 0.1 µM,78%
same,residual activity,MAP3K9 (human); compound 1.0 µM,69%
same,residual activity,MAP3K9 (human); compound 10.0 µM,17%
same,residual activity,HIPK2 (human); compound 0.1 µM,14%
same,residual activity,HIPK2 (human); compound 1.0 µM,13%
same,residual activity,HIPK2 (human); compound 10.0 µM,5%
same,residual activity,EPHA2 (human); compound 0.1 µM,46%
same,residual activity,EPHA2 (human); compound 1.0 µM,36%
same,residual activity,EPHA2 (human); compound 10.0 µM,13%
same,residual activity,MARK1 (human); compound 0.1 µM,70%
same,residual activity,MARK1 (human); compound 1.0 µM,78%
same,residual activity,MARK1 (human); compound 10.0 µM,58%
same,residual activity,DYRK2 (human); compound 0.1 µM,101%
same,residual activity,DYRK2 (human); compound 1.0 µM,87%
same,residual activity,DYRK2 (human); compound 10.0 µM,80%
same,residual activity,RPS6KA5 KD1 KD2 (human); compound 0.1 µM,59%
same,residual activity,RPS6KA5 KD1 KD2 (human); compound 1.0 µM,51%
same,residual activity,RPS6KA5 KD1 KD2 (human); compound 10.0 µM,22%
same,residual activity,CSNK2A1 (human); compound 0.1 µM,119%
same,residual activity,CSNK2A1 (human); compound 1.0 µM,104%
same,residual activity,CSNK2A1 (human); compound 10.0 µM,85%
same,residual activity,NUAK1 (human); compound 0.1 µM,40%
same,residual activity,NUAK1 (human); compound 1.0 µM,37%
same,residual activity,NUAK1 (human); compound 10.0 µM,7%
same,residual activity,IKBKE (human); compound 0.1 µM,91%
same,residual activity,IKBKE (human); compound 1.0 µM,80%
same,residual activity,IKBKE (human); compound 10.0 µM,76%
same,residual activity,CaMK1 (human); compound 0.1 µM,62%
same,residual activity,CaMK1 (human); compound 1.0 µM,59%
same,residual activity,CaMK1 (human); compound 10.0 µM,11%
same,residual activity,PAK6 (human); compound 0.1 µM,71%
same,residual activity,PAK6 (human); compound 1.0 µM,72%
same,residual activity,PAK6 (human); compound 10.0 µM,27%
same,residual activity,MAPK13 (human); compound 0.1 µM,97%
same,residual activity,MAPK13 (human); compound 1.0 µM,24%
same,residual activity,MAPK13 (human); compound 10.0 µM,5%
same,residual activity,[1]; compound 0.1 µM,105%
same,residual activity,[1]; compound 1.0 µM,86%
same,residual activity,[1]; compound 10.0 µM,53%
same,residual activity,MARK3 (human); compound 0.1 µM,103%
same,residual activity,MARK3 (human); compound 1.0 µM,89%
same,residual activity,MARK3 (human); compound 10.0 µM,57%
same,residual activity,LCK (mouse); compound 0.1 µM,43%
same,residual activity,LCK (mouse); compound 1.0 µM,13%
same,residual activity,LCK (mouse); compound 10.0 µM,5%
same,residual activity,MAPK14 (human); compound 0.1 µM,101%
same,residual activity,MAPK14 (human); compound 1.0 µM,89%
same,residual activity,MAPK14 (human); compound 10.0 µM,47%
same,residual activity,EPHB1 (human); compound 0.1 µM,53%
same,residual activity,EPHB1 (human); compound 1.0 µM,36%
same,residual activity,TAOK1 (human); compound 0.1 µM,42%
same,residual activity,TAOK1 (human); compound 1.0 µM,33%
same,residual activity,EEF2K (human); compound 0.1 µM,113%
same,residual activity,EEF2K (human); compound 1.0 µM,96%
same,residual activity,EEF2K (human); compound 10.0 µM,92%
same,residual activity,PAK7 (human); compound 0.1 µM,62%
same,residual activity,PAK7 (human); compound 1.0 µM,58%
same,residual activity,PAK7 (human); compound 10.0 µM,22%
same,residual activity,ROCK2 (rat); compound 0.1 µM,90%
same,residual activity,ROCK2 (rat); compound 1.0 µM,82%
same,residual activity,ROCK2 (rat); compound 10.0 µM,63%
same,residual activity,DYRK1A (human); compound 0.1 µM,103%
same,residual activity,DYRK1A (human); compound 1.0 µM,101%
same,residual activity,DYRK1A (human); compound 10.0 µM,61%
same,residual activity,ERBB4 (human); compound 0.1 µM,69%
same,residual activity,ERBB4 (human); compound 1.0 µM,64%
same,residual activity,ERBB4 (human); compound 10.0 µM,51%
same,residual activity,DAPK1 (human); compound 0.1 µM,99%
same,residual activity,DAPK1 (human); compound 1.0 µM,96%
same,residual activity,DAPK1 (human); compound 10.0 µM,63%
same,residual activity,PAK4 (human); compound 0.1 µM,69%
same,residual activity,PAK4 (human); compound 1.0 µM,67%
same,residual activity,PAK4 (human); compound 10.0 µM,20%
same,residual activity,MST4 (human); compound 0.1 µM,50%
same,residual activity,MST4 (human); compound 1.0 µM,50%
same,residual activity,MST4 (human); compound 10.0 µM,17%
same,residual activity,MAPKAPK5 (human); compound 0.1 µM,96%
same,residual activity,MAPKAPK5 (human); compound 1.0 µM,94%
same,residual activity,MAPKAPK5 (human); compound 10.0 µM,96%
same,residual activity,EPHB3 (human); compound 0.1 µM,22%
same,residual activity,EPHB3 (human); compound 1.0 µM,20%
same,residual activity,EPHB3 (human); compound 10.0 µM,6%
same,residual activity,BTK (human); compound 0.1 µM,96%
same,residual activity,BTK (human); compound 1.0 µM,53%
same,residual activity,BTK (human); compound 10.0 µM,8%
same,residual activity,MAP2K6 (human); compound 0.1 µM,94%
same,residual activity,MAP2K6 (human); compound 1.0 µM,95%
same,residual activity,NEK6 (human); compound 0.1 µM,103%
same,residual activity,NEK6 (human); compound 1.0 µM,101%
same,residual activity,NEK6 (human); compound 10.0 µM,85%
same,residual activity,PRKCZ (human); compound 0.1 µM,104%
same,residual activity,PRKCZ (human); compound 1.0 µM,98%
same,residual activity,PRKCZ (human); compound 10.0 µM,58%
same,residual activity,MAPK11 (human); compound 0.1 µM,87%
same,residual activity,MAPK11 (human); compound 1.0 µM,76%
same,residual activity,MAPK11 (human); compound 10.0 µM,48%
same,residual activity,HIPK1 (human); compound 0.1 µM,45%
same,residual activity,HIPK1 (human); compound 1.0 µM,42%
same,residual activity,HIPK1 (human); compound 10.0 µM,5%
same,residual activity,DYRK3 (human); compound 0.1 µM,89%
same,residual activity,DYRK3 (human); compound 1.0 µM,78%
same,residual activity,DYRK3 (human); compound 10.0 µM,43%
same,residual activity,HIPK3 (human); compound 0.1 µM,30%
same,residual activity,HIPK3 (human); compound 1.0 µM,31%
same,residual activity,HIPK3 (human); compound 10.0 µM,17%
